Test results published in ChEMBL document CHEMBL3871297, “Squarate-based carbocyclic nucleosides: Syntheses, computational analyses and anticancer/antiviral evaluation” (2017).

Columns and labels:
Assay type in all cases: functional
[1] = Cytotoxicity against human SF268 cells assessed as cell growth at 10 uM after 2 days by SRB assay relative to control; settings: SF-268, 48 h, read-out: Activity
[2] = Cytotoxicity against human DU145 cells assessed as cell growth at 10 uM after 2 days by SRB assay relative to control; settings: DU-145, 48 h, read-out: Activity
[3] = Cytotoxicity against human SK-MEL-5 cells assessed as cell growth at 10 uM after 2 days by SRB assay relative to control; settings: SK-MEL-5, 48 h, read-out: Activity
[4] = Cytotoxicity against human M14 cells assessed as cell growth at 10 uM after 2 days by SRB assay relative to control; settings: M14, 48 h, read-out: Activity
[5] = Cytotoxicity against human LOXIMVI cells assessed as cell growth at 10 uM after 2 days by SRB assay relative to control; settings: LOX IMVI, 48 h, read-out: Activity
[6] = Cytotoxicity against human A498 cells assessed as cell growth at 10 uM after 2 days by SRB assay relative to control; settings: A498, 48 h, read-out: Activity
[7] = Cytotoxicity against human K562 cells assessed as cell growth at 10 uM after 2 days by SRB assay relative to control; settings: K562, 48 h, read-out: Activity
[8] = Cytotoxicity against human HL-60(TB) cells assessed as cell growth at 10 uM after 2 days by SRB assay relative to control; settings: HL-60, 48 h, read-out: Activity
[9] = Cytotoxicity against human OVCAR8 cells assessed as cell growth at 10 uM after 2 days by SRB assay relative to control; settings: OVCAR-8, 48 h, read-out: Activity
[10] = Cytotoxicity against human OVCAR4 cells assessed as cell growth at 10 uM after 2 days by SRB assay relative to control; settings: OVCAR-4, 48 h, read-out: Activity
[11] = Cytotoxicity against human OVCAR3 cells assessed as cell growth at 10 uM after 2 days by SRB assay relative to control; settings: OVCAR-3, 48 h, read-out: Activity
[12] = Cytotoxicity against human MDA-MB-435 cells assessed as cell growth at 10 uM after 2 days by SRB assay relative to control; settings: MDA-MB-435, 48 h, read-out: Activity
[13] = Cytotoxicity against human BT549 cells assessed as cell growth at 10 uM after 2 days by SRB assay relative to control; settings: BT-549, 48 h, read-out: Activity
[14] = Cytotoxicity against human HCT15 cells assessed as cell growth at 10 uM after 2 days by SRB assay relative to control; settings: HCT-15, 48 h, read-out: Activity
[15] = Cytotoxicity against human HOP92 cells assessed as cell growth at 10 uM after 2 days by SRB assay relative to control; settings: HOP-92, 48 h, read-out: Activity
[16] = Cytotoxicity against human EKVX cells assessed as cell growth at 10 uM after 2 days by SRB assay relative to control; settings: 48 h, read-out: Activity
[17] = Cytotoxicity against human HeLa cells assessed as reduction in cell viability cell at 300 uM after 24 hrs by MTT assay

Row | SMILES | growth at 10 µM [1] [%] | growth at 10 µM [2] [%] | growth at 10 µM [3] [%] | growth at 10 µM [4] [%] | growth at 10 µM [5] [%] | growth at 10 µM [6] [%] | growth at 10 µM [7] [%] | growth at 10 µM [8] [%] | growth at 10 µM [9] [%] | growth at 10 µM [10] [%] | growth at 10 µM [11] [%] | growth at 10 µM [12] [%] | growth at 10 µM [13] [%] | growth at 10 µM [14] [%] | growth at 10 µM [15] [%] | growth at 10 µM [16] [%] | inhibition at 300 µM [17] [%]
1 | COc1c(N[C@H]2C=C[C@@H](CO)C2)c(=O)c1=O | 112 | 117 | 103 | 97.1 | 97.8 | 105 | 111 | 96.4 | 94.6 | 109 | 105 | 118 | 110 | 111 | 111 | 125 | –
2 | O=c1c(O)c(N[C@H]2C=C[C@@H](CO)C2)c1=O | 117 | 120 | 106 | 111 | 117 | – | 104 | 100 | 107 | 102 | 122 | 120 | – | 134 | 121 | 129 | –
3 | Nc1c(N[C@H]2C=C[C@@H](CO)C2)c(=O)c1=O | 165 | – | 104 | 101 | 96.4 | 114 | 99.6 | 96.7 | 92.8 | 111 | – | 114 | 115 | 103 | 104 | 121 | 50
